# Reference: ChEMBL document CHEMBL2331112, “Synthesis of novel 2-alkyl triazole-3-alkyl substituted quinoline derivatives and their cytotoxic activity” (Bioorg Med Chem Lett, 2013)
# Assays:
# Assay type in all cases: functional, cell-based
# THP-1 = assay: Cytotoxicity against human THP1 cells after 24 hrs by MTT assay; conditions: THP-1, 24 h
# COLO 205 = assay: Cytotoxicity against human COLO205 cells after 24 hrs by MTT assay; conditions: COLO 205, 24 h
# HeLa = assay: Cytotoxicity against human HeLa cells after 24 hrs by MTT assay
# U-937 = assay: Cytotoxicity against human U937 cells after 24 hrs by MTT assay; conditions: U-937, 24 h
Structure (SMILES),IC50 (THP-1) [µg/mL],IC50 (COLO 205) [µg/mL],IC50 (HeLa) [µg/mL],IC50 (U-937) [µg/mL]
CCCCCCCCCCn1cc(-c2nc3ccccc3cc2C)nn1,> 100,44.5,28.2,> 100
CCCCCCCCCCn1cc(-c2nc3ccccc3cc2CC)nn1,34.3,> 100,> 100,12.7
CCCCCCCCCCn1cc(-c2nc3ccccc3cc2CCC)nn1,> 100,> 100,> 100,26.6
CCCCCCCCCCn1cc(-c2nc3ccccc3cc2CCCC)nn1,> 100,> 100,> 100,25.2
CCCCCCCCCCn1cc(-c2nc3ccccc3cc2CCCCC)nn1,88,> 100,> 100,18.2
Cc1cc2ccccc2nc1-c1cn(CCC(F)(F)C(F)(F)C(F)(F)C(F)(F)C(F)(F)C(F)(F)C(F)(F)C(F)(F)F)nn1,> 100,75.8,> 100,56.6
CCc1cc2ccccc2nc1-c1cn(CCC(F)(F)C(F)(F)C(F)(F)C(F)(F)C(F)(F)C(F)(F)C(F)(F)C(F)(F)F)nn1,> 100,95.2,> 100,55.9
CCCc1cc2ccccc2nc1-c1cn(CCC(F)(F)C(F)(F)C(F)(F)C(F)(F)C(F)(F)C(F)(F)C(F)(F)C(F)(F)F)nn1,> 100,> 100,37.8,> 100
CCCCc1cc2ccccc2nc1-c1cn(CCC(F)(F)C(F)(F)C(F)(F)C(F)(F)C(F)(F)C(F)(F)C(F)(F)C(F)(F)F)nn1,> 100,> 100,32.8,59.1
CCCCCc1cc2ccccc2nc1-c1cn(CCC(F)(F)C(F)(F)C(F)(F)C(F)(F)C(F)(F)C(F)(F)C(F)(F)C(F)(F)F)nn1,> 100,> 100,> 100,> 100
Cc1cc2ccccc2nc1-c1cn(-c2ccc(F)cc2)nn1,> 100,> 100,> 100,65.6
CCc1cc2ccccc2nc1-c1cn(-c2ccc(F)cc2)nn1,> 100,> 100,> 100,> 100
CCCc1cc2ccccc2nc1-c1cn(-c2ccc(F)cc2)nn1,> 100,> 100,> 100,67.4
CCCCc1cc2ccccc2nc1-c1cn(-c2ccc(F)cc2)nn1,78.3,> 100,> 100,66.2
CCCCCc1cc2ccccc2nc1-c1cn(-c2ccc(F)cc2)nn1,> 100,> 100,> 100,67.5
O=c1[nH]cc(F)c(=O)[nH]1 [FLUOROURACIL],0.54,4.03,1.28,0.87
